Assay results taken from patent US8575091B1, “Amylin analogues and pharmaceutical compositions thereof” (Novo Nordisk A/S, priority 2012, dated 2013).
pEC50, pIC50: −log10 of the molar value. Numbered stars: 1 amine (or outer) side, 2 acyl side, 3 side chain; on linkers, the order of the positions; unused ones are H or OH. Bridge positions count the residues as written; N and C are the ends. Side chains are listed from the residue outwards. Peptide text beside a SMILES is read from it. * marks the point of attachment. C20 diacid = O=C(O)CCCCCCCCCCCCCCCCCCC(=O)*; γGlu = O=C(O)[C@H](CCC(=O)[*:2])N[*:1]; AEEA = NCCOCCOCC(=O)O

Columns and labels:
rat amylin receptor = biological target: T1, rat amylin receptor (Rattus norvegicus, UniProt P32214+Q9JJ73); experiment: Assay (VI) binding to the rat amylin receptor; conditions: rCTR bind IC50 divided by rAmylin-R bind IC50
T1 construct: expressed in transfected cells; host or cells: BHK tk'ts 13 (transient, FuGENE 6), membranes
T1 sequence (P32214 25-479 isoform P32214-2 limits assumed): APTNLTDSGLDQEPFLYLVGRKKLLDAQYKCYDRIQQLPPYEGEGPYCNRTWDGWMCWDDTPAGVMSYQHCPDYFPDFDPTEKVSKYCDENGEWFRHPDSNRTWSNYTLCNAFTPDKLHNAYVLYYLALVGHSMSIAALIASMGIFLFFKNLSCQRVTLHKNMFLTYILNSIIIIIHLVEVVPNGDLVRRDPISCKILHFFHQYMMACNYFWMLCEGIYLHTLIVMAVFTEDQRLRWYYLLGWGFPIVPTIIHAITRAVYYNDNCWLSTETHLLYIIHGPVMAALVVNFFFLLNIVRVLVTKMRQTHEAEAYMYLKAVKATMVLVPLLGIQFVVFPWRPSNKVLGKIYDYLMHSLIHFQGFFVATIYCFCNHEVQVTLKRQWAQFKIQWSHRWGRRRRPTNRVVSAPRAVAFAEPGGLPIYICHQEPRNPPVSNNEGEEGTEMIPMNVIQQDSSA
T1 sequence (Q9JJ73 23-147 partner): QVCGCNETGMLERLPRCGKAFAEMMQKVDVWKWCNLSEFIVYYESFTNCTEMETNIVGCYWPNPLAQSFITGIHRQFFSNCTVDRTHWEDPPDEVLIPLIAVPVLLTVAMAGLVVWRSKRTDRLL
Description: Assay (VI)—Determination of the Binding to the Rat Amylin Receptor
The assay was performed as described above (Assay (V)—Determination of binding to the human amylin receptor) with the exception that we used membranes prepared from BHK tk'ts 13 cells that were transiently transfected with the rat calcitonin receptor rat RAMP 3 at an equimolar ratio […]. The BHK tk'ts 13 cells were transiently transfected with rat calcitonin receptor using FuGENE® 6 (Roche), according to the manufacturer's recommendations. Cells were grown in DMEM with 10% FBS and 1% Pen/Strep. Approximately 48 hours after transfection, the cells were harvested and membranes were prepared.

[1] = biological target: T2, human calcitonin receptor (Homo sapiens, UniProt P30988); experiment: Assay (II)a functional assay, human calcitonin receptor (CRE luciferase, BHK cells);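 also: luminescence from a CRE-driven luciferase reporter, read by single photon counting after cells were exposed to test samples for 3 h at 37 °C under 5% CO2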; type: cell-based; conditions: read-out: hCTR funct. EC50
T2 construct: expressed in transfected cells
T2 sequence (P30988 25-474): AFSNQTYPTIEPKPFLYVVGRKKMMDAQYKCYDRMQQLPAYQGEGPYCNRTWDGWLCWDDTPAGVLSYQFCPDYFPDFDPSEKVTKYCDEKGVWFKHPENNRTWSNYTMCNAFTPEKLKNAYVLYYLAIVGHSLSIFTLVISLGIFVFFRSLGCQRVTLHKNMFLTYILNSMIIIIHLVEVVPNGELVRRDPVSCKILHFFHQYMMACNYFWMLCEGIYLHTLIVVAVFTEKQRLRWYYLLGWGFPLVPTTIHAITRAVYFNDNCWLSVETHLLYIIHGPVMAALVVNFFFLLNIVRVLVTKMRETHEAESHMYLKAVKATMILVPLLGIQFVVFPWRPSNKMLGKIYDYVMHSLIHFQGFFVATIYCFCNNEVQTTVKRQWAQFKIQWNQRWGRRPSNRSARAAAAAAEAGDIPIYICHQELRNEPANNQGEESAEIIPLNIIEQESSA

[2] = biological target: T2, human calcitonin receptor; experiment: Assay (VII) binding to the human calcitonin receptor (SPA, 125I-Calcitonin); conditions: read-out: hCTR bind IC50;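 also: cell membranes coupled to SPA beads, competitive displacement read by scintillation counting, IC50 derived from a one-site competition fit as a measure of receptor affinity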
[3] = biological target: T3, human amylin receptor (amylin 3(a) receptor: human calcitonin receptor + RAMP-3) (Homo sapiens, UniProt O60896+P30988); experiment: Assay (II)a functional assay, human amylin receptor (CRE luciferase, BHK cells); type: cell-based; conditions: functional assay, human amylin receptor; read-out: hAmylin-R funct. EC50
T3 construct: expressed in transfected cells
T3 sequence (P30988 25-474): T2 sequence (P30988 25-474)
T3 sequence (O60896 24-148 partner): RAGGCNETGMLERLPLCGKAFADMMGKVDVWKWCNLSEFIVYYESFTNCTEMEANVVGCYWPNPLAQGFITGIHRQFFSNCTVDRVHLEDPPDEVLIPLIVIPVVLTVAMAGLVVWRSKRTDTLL

human amylin receptor = biological target: T4, human amylin receptor (Homo sapiens, UniProt O60896+P30988); experiment: Assay (V) binding to the human amylin receptor (SPA, 125I-rat amylin); conditions: for pIC50: human amylin receptor membranes, SPA, read-out: hAmylin-R bind IC50
T4 construct: expressed in transfected cells
T4 sequence (P30988 25-474): T2 sequence (P30988 25-474)
T4 sequence (O60896 24-148 partner): T3 sequence (O60896 24-148 partner)
Procedure, shortened: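 SPA competition binding on membranes from Amylin 3(a)/CRE-luc cells, 35 ng/μL membranes with 0.05 mg/well beads. Buffer 50 mM Hepes pH 7.4, 1 mM CaCl2, 5 mM MgCl2, 0.1% OA, 0.02% Tween20. IC50 from one-site competition fit as affinity measure.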

Compound	Ratio rCT/rAmylin binding (rat amylin receptor; Table 7b)	Ratio rCT/rAmylin binding (rat amylin receptor; Table 7c)	Ratio rCT/rAmylin binding (rat amylin receptor)	pEC50 [1]	pIC50 [2]	pEC50 [3]	Ratio hCT/hAmylin binding (human amylin receptor; Table 7b, human calcitonin receptor binding IC50 divided by human amylin receptor binding IC50)	Ratio hCT/hAmylin binding (human amylin receptor; Table 7c, human calcitonin receptor binding IC50 divided by human amylin receptor binding IC50)	pIC50 (human amylin receptor)	Ratio hCT/hAmylin binding (human amylin receptor; human binding ratio, included for comparison)
CC[C@H](C)[C@H](NC(=O)[C@H](C)NC(=O)CNC(=O)[C@H](Cc1ccccc1)NC(=O)[C@H](CC(N)=O)NC(=O)[C@@H]1CCCN1C(=O)[C@H](CO)NC(=O)[C@H](CO)NC(=O)[C@H](Cc1c[nH]cn1)NC(=O)[C@H](CCCNC(=N)N)NC(=O)[C@H](CC(C)C)NC(=O)[C@H](Cc1ccccc1)NC(=O)[C@H](CC(N)=O)NC(=O)[C@H](C)NC(=O)[C@H](CC(C)C)NC(=O)[C@H](CCCNC(=N)N)NC(=O)[C@H](CCC(N)=O)NC(=O)[C@@H](NC(=O)[C@H](C)NC(=O)[C@@H]1CSSC[C@H](NC(=O)[C@@H](N)CCCCNC(=O)COCCOCCNC(=O)CC[C@H](NC(=O)CCCCCCCCCCCCCCCCCCC(=O)O)C(=O)O)C(=O)N[C@@H](CC(N)=O)C(=O)N[C@@H]([C@@H](C)O)C(=O)N[C@@H](C)C(=O)N[C@@H]([C@@H](C)O)C(=O)N1)[C@@H](C)O)C(=O)N1CCC[C@H]1C(=O)N[C@@H](CO)C(=O)N[C@@H](CO)C(=O)N[C@H](C(=O)N[C@@H](CC(N)=O)C(=O)N[C@H](C(=O)NCC(=O)N[C@@H](CO)C(=O)N[C@@H](CC(N)=O)C(=O)N[C@H](C(=O)N[C@@H](Cc1ccc(O)cc1)C(N)=O)[C@@H](C)O)C(C)C)[C@@H](C)O [Example 41]	54.0	54.0	54.0	–	–	–	–	–	–	–
CC[C@H](C)[C@H](NC(=O)[C@H](C)NC(=O)CNC(=O)[C@H](Cc1ccccc1)NC(=O)[C@H](CC(N)=O)NC(=O)[C@@H]1CCCN1C(=O)[C@H](CO)NC(=O)[C@H](CO)NC(=O)[C@H](Cc1c[nH]cn1)NC(=O)[C@H](CCCNC(=N)N)NC(=O)[C@H](CC(C)C)NC(=O)[C@H](Cc1ccccc1)NC(=O)[C@H](CCCNC(=N)N)NC(=O)[C@H](C)NC(=O)[C@H](CC(C)C)NC(=O)[C@H](CCCNC(=N)N)NC(=O)[C@H](CCC(N)=O)NC(=O)[C@@H](NC(=O)[C@H](C)NC(=O)[C@@H]1CSSC[C@H](NC(=O)[C@@H](N)CCCCNC(=O)COCCOCCNC(=O)CC[C@H](NC(=O)CCCCCCCCCCCCCCCCCCC(=O)O)C(=O)O)C(=O)N[C@@H](CC(N)=O)C(=O)N[C@@H]([C@@H](C)O)C(=O)N[C@@H](C)C(=O)N[C@@H]([C@@H](C)O)C(=O)N1)[C@@H](C)O)C(=O)N1CCC[C@H]1C(=O)N[C@@H](CO)C(=O)N[C@@H](CO)C(=O)N[C@H](C(=O)N[C@@H](CC(N)=O)C(=O)N[C@H](C(=O)NCC(=O)N[C@@H](CO)C(=O)N[C@@H](CC(N)=O)C(=O)N[C@H](C(=O)N[C@@H](Cc1ccc(O)cc1)C(N)=O)[C@@H](C)O)C(C)C)[C@@H](C)O [Example 82] (H-K([AEEA-γGlu-C20 diacid])CNTATCATQRLARFLRHSSPNFGAIPSSTNVGSNTY-NH2; disulfide 2-7 (inferred); N-terminus and C-terminus assumed)	87.0	87.0	87.0	–	–	–	–	–	–	–
CC[C@H](C)[C@H](NC(=O)[C@H](C)NC(=O)CNC(=O)[C@H](Cc1ccccc1)NC(=O)[C@H](CC(N)=O)NC(=O)[C@@H]1CCCN1C(=O)[C@H](CO)NC(=O)[C@H](CO)NC(=O)[C@H](Cc1c[nH]cn1)NC(=O)[C@H](CCCNC(=N)N)NC(=O)[C@H](CC(C)C)NC(=O)[C@H](Cc1ccccc1)NC(=O)[C@H](CC(=O)O)NC(=O)[C@H](C)NC(=O)[C@H](CC(C)C)NC(=O)[C@H](CCCNC(=N)N)NC(=O)[C@H](CCC(N)=O)NC(=O)[C@@H](NC(=O)[C@H](C)NC(=O)[C@@H]1CSSC[C@H](NC(=O)[C@@H](N)CCCCNC(=O)CC[C@H](NC(=O)CC[C@H](NC(=O)CCCCCCCCCCCCCCCCCCC(=O)O)C(=O)O)C(=O)O)C(=O)N[C@@H](CC(N)=O)C(=O)N[C@@H]([C@@H](C)O)C(=O)N[C@@H](C)C(=O)N[C@@H]([C@@H](C)O)C(=O)N1)[C@@H](C)O)C(=O)N1CCC[C@H]1C(=O)N[C@@H](CO)C(=O)N[C@@H](CO)C(=O)N[C@H](C(=O)N[C@@H](CC(N)=O)C(=O)N[C@H](C(=O)NCC(=O)N1CCC[C@H]1C(=O)N[C@@H](CCCNC(=N)N)C(=O)N[C@H](C(=O)N[C@@H](Cc1ccc(O)cc1)C(N)=O)[C@@H](C)O)C(C)C)[C@@H](C)O [Example 130] (H-K([γGlu-γGlu-C20 diacid])CNTATCATQRLADFLRHSSPNFGAIPSSTNVGPRTY-NH2; disulfide 2-7)	–	–	–	8.14	6.90	9.79	280.0	280.0	9.34	280.0
CC[C@H](C)[C@H](NC(=O)[C@H](C)NC(=O)CNC(=O)[C@H](Cc1ccccc1)NC(=O)[C@H](CC(N)=O)NC(=O)[C@@H]1CCCN1C(=O)[C@H](CO)NC(=O)[C@H](CO)NC(=O)[C@H](Cc1c[nH]cn1)NC(=O)[C@H](CCCNC(=N)N)NC(=O)[C@H](CC(C)C)NC(=O)[C@H](Cc1ccccc1)NC(=O)[C@@H](CC(=O)O)NC(=O)[C@H](C)NC(=O)[C@H](CC(C)C)NC(=O)[C@H](CCCNC(=N)N)NC(=O)[C@H](CCC(N)=O)NC(=O)[C@@H](NC(=O)[C@H](C)NC(=O)[C@@H]1CSSC[C@H](NC(=O)[C@@H](N)CCCCNC(=O)CC[C@H](NC(=O)CC[C@H](NC(=O)CCCCCCCCCCCCCCCCCCC(=O)O)C(=O)O)C(=O)O)C(=O)N[C@@H](CC(N)=O)C(=O)N[C@@H]([C@@H](C)O)C(=O)N[C@@H](C)C(=O)N[C@@H]([C@@H](C)O)C(=O)N1)[C@@H](C)O)C(=O)N1CCC[C@H]1C(=O)N[C@@H](CO)C(=O)N[C@@H](CO)C(=O)N[C@H](C(=O)N[C@@H](CC(N)=O)C(=O)N[C@H](C(=O)NCC(=O)N[C@@H](CO)C(=O)N[C@@H](CCCNC(=N)N)C(=O)N[C@H](C(=O)N[C@@H](Cc1ccc(O)cc1)C(N)=O)[C@@H](C)O)C(C)C)[C@@H](C)O [Example 131]	–	–	–	7.00	6.95	9.42	–	–	9.44	–
